# Source: the supplement of paper PMC11061612
# Experiments:
# AZD2811 = compound: CCN(CCO)CCCOc1ccc2c(Nc3cc(CC(=O)Nc4cccc(F)c4)[nH]n3)ncnc2c1 [AZD2811]; conditions: max 1 µM
# In short: (§1)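 Following 24 hours at 37°C and 5% CO2, cancer cell lines in 1536-well plates with 7.5 μl DMEM/F12 or RPMI and 10% FBS were dosed for 72 hours, final DMSO typically being 0.2%. CellTiter-Glo 2.0 luminescence, scaled between blank-well and DMSO-well means, gave the viability readout. Dose responses were fitted to a two-parameter logistic curve with a non-linear mixed effects model, and the single-agent IC50 was derived from this fit.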
# SN-38 = compound: CCc1c2c(nc3ccc(O)cc13)-c1cc3c(c(=O)n1C2)COC(=O)[C@]3(O)CC [SN-38]; conditions: max 0.3 µM
# In short: as §1
# AZD5991 = compound: Cc1c2c(nn1C)CSCc1cc(n(C)n1)CSc1cc(c3ccccc3c1)OCCCc1c(C(=O)O)n(C)c3c-2c(Cl)ccc13 [AZD5991]; conditions: max 1 µM
# In short: as §1
# Gefitinib = compound: COc1cc2ncnc(Nc3ccc(F)c(Cl)c3)c2cc1OCCCN1CCOCC1 [Gefitinib]; conditions: max 10 µM
# In short: as §1
# Lapatinib = compound: CS(=O)(=O)CCNCc1ccc(-c2ccc3ncnc(Nc4ccc(OCc5cccc(F)c5)c(Cl)c4)c3c2)o1 [Lapatinib]; conditions: max 10 µM
# In short: as §1
# AZD5153 = compound: COc1nnc2ccc(N3CCC(c4ccc(OCCN5CCN(C)C(=O)[C@H]5C)cc4)CC3)nn12 [AZD5153]; conditions: max 1 µM
# In short: as §1
# Carboplatin = compound: C1CC(C1)(C(=O)[O-])C(=O)[O-].N.N.[Pt+2] [Carboplatin]; conditions: max 10 µM
# In short: as §1
# AZD4320 = compound: CN(CC[C@H](CSC1=CC=CC=C1)NC2=C(C=C(C=C2)S(=O)(=O)NC(=O)C3=CC=C(C=C3)N4CCC(CC4)[C@H](C5=CC=CC=C5C6=CC=C(C=C6)Cl)O)S(=O)(=O)C(F)(F)F)CCO [AZD4320]; conditions: max 1 µM
# In short: as §1
# [1] = compound: O=C(Nc1ccc2[nH]nc(-c3ccncc3)c2c1)[C@@H]1CCN(CC(=O)N2CCN(c3ccc(-c4ncccn4)cc3)CC2)C1; conditions: max 5 µM
# In short: as §1
# Etoposide = compound: COc1cc([C@@H]2c3cc4c(cc3[C@@H](O[C@@H]3O[C@@H]5CO[C@@H](C)O[C@H]5[C@H](O)[C@H]3O)[C@H]3COC(=O)[C@H]23)OCO4)cc(OC)c1O [Etoposide]; conditions: max 10 µM
# In short: as §1
# 5-Fluorouracil = compound: O=c1[nH]cc(F)c(=O)[nH]1 [5-Fluorouracil]; conditions: max 20 µM
# In short: as §1
# Prexasertib = compound: COc1cccc(OCCCN)c1-c1cc(Nc2cnc(C#N)cn2)n[nH]1 [Prexasertib]; conditions: max 1 µM
# In short: as §1
# Crizotinib = compound: C[C@@H](Oc1cc(-c2cnn(C3CCNCC3)c2)cnc1N)c1c(Cl)ccc(F)c1Cl [Crizotinib]; conditions: max 10 µM
# In short: as §1
# Paclitaxel = compound: CC(=O)O[C@H]1C(=O)[C@@]2(C)[C@H]([C@H](OC(=O)c3ccccc3)[C@]3(O)C[C@H](OC(=O)[C@H](O)[C@@H](NC(=O)c4ccccc4)c4ccccc4)C(C)=C1C3(C)C)[C@]1(OC(C)=O)CO[C@@H]1C[C@@H]2O [Paclitaxel]; conditions: max 3 µM
# In short: as §1
# Gemcitabine = compound: Nc1ccn([C@@H]2O[C@H](CO)[C@@H](O)C2(F)F)c(=O)n1 [Gemcitabine]; conditions: max 0.3 µM
# In short: as §1
# AZD5363 = compound: C1CN(CCC1(C(=O)N[C@@H](CCO)C2=CC=C(C=C2)Cl)N)C3=NC=NC4=C3C=CN4 [AZD5363]; conditions: max 10 µM
# In short: as §1
# AZD7648 = compound: Cc1cc2ncnn2cc1Nc1ncc2c(n1)n(C1CCOCC1)c(=O)n2C [AZD7648]; conditions: max 10 µM
# In short: as §1
# Alisertib = compound: COc1cc(Nc2ncc3c(n2)-c2ccc(Cl)cc2C(c2c(F)cccc2OC)=NC3)ccc1C(=O)O [Alisertib]; conditions: max 10 µM
# In short: as §1
# Selumetinib = compound: Cn1cnc2c(F)c(Nc3ccc(Br)cc3Cl)c(C(=O)NOCCO)cc21 [Selumetinib]; conditions: max 10 µM
# In short: as §1
# AZD1390 = compound: CC(C)n1c(=O)n(C)c2cnc3cc(F)c(-c4ccc(OCCCN5CCCCC5)nc4)cc3c21 [AZD1390]; conditions: max 0.3 µM
# In short: as §1
# Savolitinib = compound: C[C@@H](c1ccc2nccn2c1)n1nnc2ncc(-c3cnn(C)c3)nc21 [Savolitinib]; conditions: max 1 µM
# In short: as §1
# AZD1775 = compound: C=CCn1c(=O)c2cnc(Nc3ccc(N4CCN(C)CC4)cc3)nc2n1-c1cccc(C(C)(C)O)n1 [AZD1775]; conditions: max 3 µM
# In short: as §1
# Doxorubicin = compound: COc1cccc2c1C(=O)c1c(O)c3c(c(O)c1C2=O)C[C@@](O)(C(=O)CO)C[C@@H]3O[C@H]1C[C@H](N)[C@H](O)[C@H](C)O1 [Doxorubicin]; conditions: max 1 µM
# In short: as §1
# AZD0156 = compound: CN(C)CCCOc1ccc(-c2ccc3ncc4c(c3c2)n(C2CCOCC2)c(=O)n4C)cn1 [AZD0156]; conditions: max 3 µM
# In short: as §1
# AZD8186 = compound: C[C@@H](Nc1cc(F)cc(F)c1)c1cc(C(=O)N(C)C)cc2c(=O)cc(N3CCOCC3)oc12 [AZD8186]; conditions: max 10 µM
# In short: as §1
# Trametinib = compound: CC(=O)Nc1cccc(-n2c(=O)n(C3CC3)c(=O)c3c(Nc4ccc(I)cc4F)n(C)c(=O)c(C)c32)c1 [Trametinib]; conditions: max 1 µM
# In short: as §1
# SG3199 = compound: CC1=CN2[C@@H](C1)C=NC3=CC(=C(C=C3C2=O)OC)OCCCCCOC4=C(C=C5C(=C4)N=C[C@@H]6CC(=CN6C5=O)C)OC [SG3199]; conditions: max 0.001 µM
# In short: as §1
# Palbociclib = compound: CC(=O)c1c(C)c2cnc(Nc3ccc(N4CCNCC4)cn3)nc2n(C2CCCC2)c1=O [Palbociclib]; conditions: max 10 µM
# In short: as §1
# Venetoclax = compound: CC1(C)CCC(CN2CCN(c3ccc(C(=O)NS(=O)(=O)c4ccc(NCC5CCOCC5)c([N+](=O)[O-])c4)c(Oc4cnc5[nH]ccc5c4)c3)CC2)=C(c2ccc(Cl)cc2)C1 [Venetoclax]; conditions: max 1 µM
# In short: as §1
# Dasatinib = compound: CC1=C(C(=CC=C1)Cl)NC(=O)C2=CN=C(S2)NC3=CC(=NC(=N3)C)N4CCN(CC4)CCO [Dasatinib]; conditions: max 2 µM
# In short: as §1
# Olaparib = compound: O=C(c1cc(Cc2n[nH]c(=O)c3ccccc23)ccc1F)N1CCN(C(=O)C2CC2)CC1 [Olaparib]; conditions: max 10 µM
# In short: as §1
# Taselisib = compound: Cc1nc(-c2cn3c(n2)-c2ccc(-c4cnn(C(C)(C)C(N)=O)c4)cc2OCC3)n(C(C)C)n1 [Taselisib]; conditions: max 10 µM
# In short: as §1
# SRA737 = compound: N#Cc1cnc(Nc2cc(NC[C@H]3CNCCO3)c(C(F)(F)F)cn2)cn1 [SRA737]; conditions: max 10 µM
# In short: as §1
# AZD6738 = compound: C[C@@H]1COCCN1C2=NC(=NC(=C2)C3(CC3)[S@](=N)(=O)C)C4=C5C=CNC5=NC=C4 [AZD6738]; conditions: max 10 µM
# In short: as §1
# MK-2206 = compound: NC1(c2ccc(-c3nc4ccn5c(=O)[nH]nc5c4cc3-c3ccccc3)cc2)CCC1 [MK-2206]; conditions: max 10 µM
# In short: as §1
Cell Line,"IC50, cell viability 72 h (AZD2811) [µM]","IC50, cell viability 72 h (SN-38) [µM]","IC50, cell viability 72 h (AZD5991) [µM]","IC50, cell viability 72 h (Gefitinib) [µM]","IC50, cell viability 72 h (Lapatinib) [µM]","IC50, cell viability 72 h (AZD5153) [µM]","IC50, cell viability 72 h (Carboplatin) [µM]","IC50, cell viability 72 h (AZD4320) [µM]","IC50, cell viability 72 h [1] [µM]","IC50, cell viability 72 h (Etoposide) [µM]","IC50, cell viability 72 h (5-Fluorouracil) [µM]","IC50, cell viability 72 h (Prexasertib) [µM]","IC50, cell viability 72 h (Crizotinib) [µM]","IC50, cell viability 72 h (Paclitaxel) [µM]","IC50, cell viability 72 h (Gemcitabine) [µM]","IC50, cell viability 72 h (AZD5363) [µM]","IC50, cell viability 72 h (AZD7648) [µM]","IC50, cell viability 72 h (Alisertib) [µM]","IC50, cell viability 72 h (Selumetinib) [µM]","IC50, cell viability 72 h (AZD1390) [µM]","IC50, cell viability 72 h (Savolitinib) [µM]","IC50, cell viability 72 h (AZD1775) [µM]","IC50, cell viability 72 h (Doxorubicin) [µM]","IC50, cell viability 72 h (AZD0156) [µM]","IC50, cell viability 72 h (AZD8186) [µM]","IC50, cell viability 72 h (Trametinib) [µM]","IC50, cell viability 72 h (SG3199) [µM]","IC50, cell viability 72 h (Palbociclib) [µM]","IC50, cell viability 72 h (Venetoclax) [µM]","IC50, cell viability 72 h (Dasatinib) [µM]","IC50, cell viability 72 h (Olaparib) [µM]","IC50, cell viability 72 h (Taselisib) [µM]","IC50, cell viability 72 h (SRA737) [µM]","IC50, cell viability 72 h (AZD6738) [µM]","IC50, cell viability 72 h (MK-2206) [µM]"
NCI-H1299 (Non-Small Cell Lung Carcinoma),> 1,> 0.3,> 1,> 10,> 10,0.184,> 10,> 1,> 5,> 10,> 20,0.1,> 10,0.134,0.239,> 10,> 10,> 10,> 10,> 0.3,> 1,0.364,0.88,> 3,> 10,0.912,> 0.001,> 10,> 1,1.57,> 10,> 10,> 10,9.87,> 10
NCI-H2595 (Mesothelioma),> 1,> 0.3,> 1,> 10,> 10,> 1,> 10,> 1,> 5,> 10,> 20,> 1,> 10,1.28,> 0.3,> 10,> 10,> 10,> 10,> 0.3,> 1,> 3,> 1,> 3,> 10,> 1,> 0.001,> 10,> 1,> 2,> 10,> 10,> 10,> 10,> 10
OCI-AML2 (Acute Myeloid Leukemia),0.341,0.0047,0.193,> 10,> 10,0.043,> 10,0.00633,0.0515,0.503,1.2,0.0124,2.78,0.00445,0.00797,7.58,> 10,1.34,0.0366,> 0.3,> 1,0.358,0.0123,> 3,> 10,< 0.001,> 0.001,3.17,0.00792,> 2,6.69,> 10,1.17,0.965,> 10
SK-N-FI (Neuroblastoma),> 1,0.157,> 1,> 10,> 10,0.447,> 10,> 1,> 5,> 10,> 20,0.0603,> 10,2.25,> 0.3,> 10,> 10,2.48,7.75,> 0.3,> 1,1.6,> 1,> 3,> 10,0.117,> 0.001,> 10,> 1,> 2,> 10,0.955,> 10,8.51,> 10
SN12C (Kidney Carcinoma),> 1,0.29,> 1,> 10,> 10,> 1,> 10,> 1,> 5,> 10,> 20,> 1,> 10,> 3,> 0.3,> 10,> 10,> 10,> 10,> 0.3,> 1,> 3,> 1,> 3,> 10,> 1,> 0.001,> 10,> 1,> 2,> 10,> 10,> 10,> 10,> 10
